The results in this text go back to ChEMBL document CHEMBL1201862, “PubChem BioAssay data set” (2004).

Activity calls are given as the source filed them.

Test [1] deals with T1, Sentrin-specific protease 8 (Homo sapiens, UniProt Q96LD8).
T1 sequence (Q96LD8 whole entry): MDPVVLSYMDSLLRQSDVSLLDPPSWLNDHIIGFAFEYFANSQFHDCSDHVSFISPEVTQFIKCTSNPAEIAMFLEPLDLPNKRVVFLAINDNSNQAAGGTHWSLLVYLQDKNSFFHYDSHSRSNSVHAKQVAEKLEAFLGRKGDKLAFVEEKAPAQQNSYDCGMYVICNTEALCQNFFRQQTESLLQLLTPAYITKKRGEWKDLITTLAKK
Type of test: functional.

Test [2] addresses T2, Sentrin-specific protease 7 (Homo sapiens, UniProt Q9BQF6).
T2 sequence (Q9BQF6 whole entry): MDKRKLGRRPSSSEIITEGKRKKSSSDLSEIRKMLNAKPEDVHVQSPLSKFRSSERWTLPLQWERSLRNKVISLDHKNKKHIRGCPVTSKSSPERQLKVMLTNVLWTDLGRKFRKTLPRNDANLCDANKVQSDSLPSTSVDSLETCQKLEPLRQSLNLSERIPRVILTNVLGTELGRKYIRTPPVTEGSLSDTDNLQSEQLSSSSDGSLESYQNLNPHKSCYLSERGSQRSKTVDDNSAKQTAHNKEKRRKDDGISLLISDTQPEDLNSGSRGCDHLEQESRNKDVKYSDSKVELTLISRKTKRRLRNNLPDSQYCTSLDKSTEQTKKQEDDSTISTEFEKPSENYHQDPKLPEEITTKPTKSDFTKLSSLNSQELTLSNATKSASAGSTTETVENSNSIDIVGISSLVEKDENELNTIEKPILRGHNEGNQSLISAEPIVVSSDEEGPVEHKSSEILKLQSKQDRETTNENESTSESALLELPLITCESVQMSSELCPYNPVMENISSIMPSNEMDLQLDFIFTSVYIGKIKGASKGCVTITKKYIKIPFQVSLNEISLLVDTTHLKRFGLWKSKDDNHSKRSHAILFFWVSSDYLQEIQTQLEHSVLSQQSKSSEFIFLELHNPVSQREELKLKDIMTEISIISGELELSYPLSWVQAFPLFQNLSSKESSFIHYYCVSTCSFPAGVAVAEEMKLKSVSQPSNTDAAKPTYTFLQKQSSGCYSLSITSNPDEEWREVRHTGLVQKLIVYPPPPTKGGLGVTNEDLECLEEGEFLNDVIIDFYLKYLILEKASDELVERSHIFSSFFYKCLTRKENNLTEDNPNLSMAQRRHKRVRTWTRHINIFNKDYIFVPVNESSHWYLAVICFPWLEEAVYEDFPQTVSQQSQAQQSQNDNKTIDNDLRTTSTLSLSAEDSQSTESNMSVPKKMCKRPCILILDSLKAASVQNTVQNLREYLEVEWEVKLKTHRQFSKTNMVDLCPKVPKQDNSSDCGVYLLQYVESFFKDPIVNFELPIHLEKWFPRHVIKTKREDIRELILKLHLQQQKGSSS
It counts as functional.

Test [3] in a line: control 3'UTR Renilla luciferase suppression, dose response, counter-screen for Shn3 inhibitor project, cell-based, Clone20-Shn3RL, cherry-picked (AID 624133). Type of test: functional. For orientation: Counterscreens check selectivity or assay interference.
In test [4] the target is Heat shock protein HSP 90-alpha (Homo sapiens, UniProt P07900). Type of test: functional, organism-based.
For test [5], the target named is Sphingosine 1-phosphate receptor 4 (Homo sapiens, UniProt O95977). In words: Fluorescence dose response cell-based high throughput screening assay for antagonists of the Sphingosine 1-Phosphate Receptor 4 (S1P4). [Related pubchem assays: 1524 (Confirmation in triplicates.), 1510 (Primary screen.)]. It counts as functional.
Test [6] in a line: HepG2 cell cytotoxicity, dose response, cytotoxicity control for Shn3 inhibitor project, CellTiter-Glo, cherry-picked (AID 624134). Type of test: functional, cell-based.
Test [7] deals with Intestinal-type alkaline phosphatase (Homo sapiens, UniProt P09923). The experiment in a line: human IAP activators, dose response, biochemical, luminescent, uHTS hits, set 2 (AID 488817).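 Also: potency of activators that raise enzyme activity.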 It counts as functional.
The target in another test is T3, Caspase-6 (Homo sapiens, UniProt P55212).
T3 sequence (P55212 whole entry): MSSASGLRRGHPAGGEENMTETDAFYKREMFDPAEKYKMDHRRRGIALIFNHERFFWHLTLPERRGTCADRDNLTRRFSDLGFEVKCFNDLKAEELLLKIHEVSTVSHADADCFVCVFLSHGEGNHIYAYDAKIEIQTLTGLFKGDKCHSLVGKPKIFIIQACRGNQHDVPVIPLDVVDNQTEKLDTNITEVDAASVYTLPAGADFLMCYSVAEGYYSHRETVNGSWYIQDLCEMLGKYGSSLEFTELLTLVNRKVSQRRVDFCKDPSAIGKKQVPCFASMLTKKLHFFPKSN
The experiment in a line: human caspase-6 inhibitors, dose response, biochemical, VEID-R110 fluorescence, cherry-pick (AID 720632).

Another test concerns the target SRSF protein kinase 1 (Homo sapiens, UniProt Q96SB4). Type of test: functional.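 Also: measured as one member of a kinome-wide kinase profiling panel.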
The target in test [8] is Mitogen-activated protein kinase kinase kinase kinase 5 (Homo sapiens, UniProt Q9Y4K4). It counts as functional.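 Also: measured as one member of a kinome-spanning kinase panel.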
Test [9] concerns the target Serine/threonine-protein kinase TAO1 (Homo sapiens, UniProt Q7L7X3). Type of test: functional.
The target of test [10] is Serine/threonine-protein kinase D3 (Homo sapiens, UniProt O94806). Type of test: functional.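 Also: determined within a kinase panel screen, with PRKCN as the panel member.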
In test [11] the target is Proto-oncogene tyrosine-protein kinase Src (Homo sapiens, UniProt P12931). It counts as functional.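 Also: SRC entry within a kinome-wide kinase profiling panel.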
Test [12] deals with Protein-tyrosine kinase 2-beta (Homo sapiens, UniProt Q14289). Type of test: functional.
The target of test [13] is MAP kinase-activated protein kinase 3 (Homo sapiens, UniProt Q16644). It counts as functional.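 Also: value comes from a kinome-wide profiling panel in which MAPKAPK3 is one of the panel members.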
Test [14] addresses Cyclin-dependent kinase 2 (Homo sapiens, UniProt P24941). Type of test: functional.
Test [15] has as its target ALK tyrosine kinase receptor (Homo sapiens, UniProt Q9UM73). It counts as functional.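 Also: ALK tested as one member of a kinase panel screen.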
Test [16] deals with Protein kinase C theta type (Homo sapiens, UniProt Q04759). The experiment in a line: Navigating the Kinome. Panel member name: PRKCQ. Type of test: functional.
The target in test [17] is Calcium/calmodulin-dependent protein kinase type II subunit alpha (Homo sapiens, UniProt Q9UQM7). The experiment in a line: Navigating the Kinome. Panel member name: CAMK2A. Type of test: functional.
The target in test [18] is Dual specificity tyrosine-phosphorylation-regulated kinase 1B (Homo sapiens, UniProt Q9Y463). The experiment in a line: Navigating the Kinome. Panel member name: DYRK1B. It counts as functional.
Test [19] has as its target RAC-gamma serine/threonine-protein kinase (Homo sapiens, UniProt Q9Y243). Type of test: functional.
Test [20] addresses Leucine-rich repeat serine/threonine-protein kinase 2 (Homo sapiens, UniProt Q5S007). Type of test: functional.
The target in test [21] is Proto-oncogene tyrosine-protein kinase receptor Ret (Homo sapiens, UniProt P07949). Type of test: functional.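 Also: measured within a kinome-wide profiling panel, RET as the panel member.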
The nature of test [22]: THP-1 cell cytotoxicity, dose response, cytotoxicity control for Vif-APOBEC3G degradation inhibitor project, THP-1 cells (AID 1117359). It counts as functional. The note with it: Human immunodeficiency virus 1, THP-1.

Sequence of Proto-oncogene tyrosine-protein kinase receptor Ret (P07949 whole entry): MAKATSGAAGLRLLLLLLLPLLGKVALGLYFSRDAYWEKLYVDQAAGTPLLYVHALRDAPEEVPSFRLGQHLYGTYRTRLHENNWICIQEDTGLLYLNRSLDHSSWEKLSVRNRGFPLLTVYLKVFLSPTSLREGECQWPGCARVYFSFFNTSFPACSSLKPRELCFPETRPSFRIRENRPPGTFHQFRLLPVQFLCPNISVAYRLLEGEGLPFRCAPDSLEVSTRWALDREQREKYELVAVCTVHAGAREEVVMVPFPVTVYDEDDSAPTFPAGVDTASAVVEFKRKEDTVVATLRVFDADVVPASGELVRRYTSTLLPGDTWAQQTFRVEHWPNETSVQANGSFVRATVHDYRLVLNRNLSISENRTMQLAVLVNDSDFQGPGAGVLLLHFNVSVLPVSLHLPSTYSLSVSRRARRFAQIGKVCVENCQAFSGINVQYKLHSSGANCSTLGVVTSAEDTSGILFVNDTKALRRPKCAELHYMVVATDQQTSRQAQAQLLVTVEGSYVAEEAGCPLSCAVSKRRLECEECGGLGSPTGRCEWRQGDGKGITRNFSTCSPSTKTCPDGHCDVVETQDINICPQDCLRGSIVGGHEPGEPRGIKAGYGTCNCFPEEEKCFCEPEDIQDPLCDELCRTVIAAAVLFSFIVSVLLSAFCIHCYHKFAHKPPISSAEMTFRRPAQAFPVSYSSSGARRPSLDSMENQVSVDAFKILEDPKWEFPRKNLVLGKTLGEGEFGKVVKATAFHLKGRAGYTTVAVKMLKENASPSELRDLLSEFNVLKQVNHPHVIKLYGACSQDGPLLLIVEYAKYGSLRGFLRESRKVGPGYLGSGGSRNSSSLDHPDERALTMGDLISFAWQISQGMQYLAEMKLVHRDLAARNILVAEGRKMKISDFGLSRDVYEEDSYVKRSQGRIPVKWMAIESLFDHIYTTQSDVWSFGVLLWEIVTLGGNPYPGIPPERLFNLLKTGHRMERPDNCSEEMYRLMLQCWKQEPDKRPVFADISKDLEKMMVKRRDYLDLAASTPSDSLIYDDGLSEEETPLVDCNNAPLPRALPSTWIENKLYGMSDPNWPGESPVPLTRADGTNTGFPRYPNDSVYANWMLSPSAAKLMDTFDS
Sequence of Serine/threonine-protein kinase D3 (O94806 whole entry): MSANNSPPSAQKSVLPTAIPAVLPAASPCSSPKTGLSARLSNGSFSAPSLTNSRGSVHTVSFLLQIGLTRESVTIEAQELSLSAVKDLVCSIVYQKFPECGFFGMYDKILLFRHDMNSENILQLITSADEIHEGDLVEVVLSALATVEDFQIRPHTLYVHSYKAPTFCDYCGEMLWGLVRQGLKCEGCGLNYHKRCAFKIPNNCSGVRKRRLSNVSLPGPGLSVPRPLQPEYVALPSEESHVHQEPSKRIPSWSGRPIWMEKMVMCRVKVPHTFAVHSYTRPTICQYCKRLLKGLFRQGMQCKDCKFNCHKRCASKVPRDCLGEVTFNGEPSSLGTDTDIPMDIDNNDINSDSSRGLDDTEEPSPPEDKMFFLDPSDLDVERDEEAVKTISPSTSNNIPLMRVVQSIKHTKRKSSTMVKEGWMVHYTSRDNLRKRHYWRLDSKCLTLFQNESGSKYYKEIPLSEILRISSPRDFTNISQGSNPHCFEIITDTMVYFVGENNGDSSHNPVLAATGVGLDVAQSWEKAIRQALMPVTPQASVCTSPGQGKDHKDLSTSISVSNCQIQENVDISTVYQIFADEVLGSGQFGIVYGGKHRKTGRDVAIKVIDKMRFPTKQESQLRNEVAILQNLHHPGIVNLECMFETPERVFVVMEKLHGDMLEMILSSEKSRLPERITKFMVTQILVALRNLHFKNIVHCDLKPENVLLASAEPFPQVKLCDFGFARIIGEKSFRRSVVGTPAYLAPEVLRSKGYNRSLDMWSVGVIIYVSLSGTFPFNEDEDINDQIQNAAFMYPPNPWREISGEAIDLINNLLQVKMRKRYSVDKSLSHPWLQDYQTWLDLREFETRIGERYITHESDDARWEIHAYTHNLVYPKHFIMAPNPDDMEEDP
Sequence of Proto-oncogene tyrosine-protein kinase Src (P12931 2-536 limits assumed): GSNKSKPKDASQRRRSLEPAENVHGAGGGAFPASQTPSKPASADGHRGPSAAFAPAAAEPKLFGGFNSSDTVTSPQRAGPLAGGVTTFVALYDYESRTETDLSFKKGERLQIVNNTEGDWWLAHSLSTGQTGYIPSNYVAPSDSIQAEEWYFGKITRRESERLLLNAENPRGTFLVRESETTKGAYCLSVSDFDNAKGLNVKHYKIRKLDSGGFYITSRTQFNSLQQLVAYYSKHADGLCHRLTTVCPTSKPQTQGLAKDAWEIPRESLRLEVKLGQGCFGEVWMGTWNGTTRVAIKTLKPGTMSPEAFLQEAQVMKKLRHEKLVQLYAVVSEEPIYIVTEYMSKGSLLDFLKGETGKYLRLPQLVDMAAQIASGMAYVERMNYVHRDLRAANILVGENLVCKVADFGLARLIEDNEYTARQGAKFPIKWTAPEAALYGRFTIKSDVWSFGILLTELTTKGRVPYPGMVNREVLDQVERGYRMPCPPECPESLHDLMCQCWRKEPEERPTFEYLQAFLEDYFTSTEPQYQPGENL
Sequence of Mitogen-activated protein kinase kinase kinase kinase 5 (Q9Y4K4 whole entry): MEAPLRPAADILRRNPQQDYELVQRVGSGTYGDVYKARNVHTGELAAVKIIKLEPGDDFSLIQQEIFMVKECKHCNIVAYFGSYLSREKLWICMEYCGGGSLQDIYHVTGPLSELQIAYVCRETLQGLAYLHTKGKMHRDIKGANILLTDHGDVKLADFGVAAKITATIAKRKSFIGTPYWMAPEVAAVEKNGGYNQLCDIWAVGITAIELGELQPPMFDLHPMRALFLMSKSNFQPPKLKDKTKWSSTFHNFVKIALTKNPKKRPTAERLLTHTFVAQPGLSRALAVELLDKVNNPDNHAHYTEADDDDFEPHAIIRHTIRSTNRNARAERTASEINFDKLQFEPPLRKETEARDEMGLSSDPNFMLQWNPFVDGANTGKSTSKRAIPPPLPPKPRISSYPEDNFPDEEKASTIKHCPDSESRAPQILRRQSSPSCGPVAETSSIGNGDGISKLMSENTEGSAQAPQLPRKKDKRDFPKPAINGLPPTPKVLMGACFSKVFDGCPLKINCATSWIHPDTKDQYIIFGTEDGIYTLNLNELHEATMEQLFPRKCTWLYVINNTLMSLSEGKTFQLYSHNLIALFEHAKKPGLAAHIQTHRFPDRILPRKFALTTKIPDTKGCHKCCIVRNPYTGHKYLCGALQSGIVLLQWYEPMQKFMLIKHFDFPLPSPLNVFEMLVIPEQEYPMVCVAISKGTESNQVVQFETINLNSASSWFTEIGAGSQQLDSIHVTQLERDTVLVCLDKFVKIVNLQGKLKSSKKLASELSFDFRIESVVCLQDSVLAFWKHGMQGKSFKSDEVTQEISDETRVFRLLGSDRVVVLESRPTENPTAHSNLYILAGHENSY
Sequence of SRSF protein kinase 1 (Q96SB4 whole entry): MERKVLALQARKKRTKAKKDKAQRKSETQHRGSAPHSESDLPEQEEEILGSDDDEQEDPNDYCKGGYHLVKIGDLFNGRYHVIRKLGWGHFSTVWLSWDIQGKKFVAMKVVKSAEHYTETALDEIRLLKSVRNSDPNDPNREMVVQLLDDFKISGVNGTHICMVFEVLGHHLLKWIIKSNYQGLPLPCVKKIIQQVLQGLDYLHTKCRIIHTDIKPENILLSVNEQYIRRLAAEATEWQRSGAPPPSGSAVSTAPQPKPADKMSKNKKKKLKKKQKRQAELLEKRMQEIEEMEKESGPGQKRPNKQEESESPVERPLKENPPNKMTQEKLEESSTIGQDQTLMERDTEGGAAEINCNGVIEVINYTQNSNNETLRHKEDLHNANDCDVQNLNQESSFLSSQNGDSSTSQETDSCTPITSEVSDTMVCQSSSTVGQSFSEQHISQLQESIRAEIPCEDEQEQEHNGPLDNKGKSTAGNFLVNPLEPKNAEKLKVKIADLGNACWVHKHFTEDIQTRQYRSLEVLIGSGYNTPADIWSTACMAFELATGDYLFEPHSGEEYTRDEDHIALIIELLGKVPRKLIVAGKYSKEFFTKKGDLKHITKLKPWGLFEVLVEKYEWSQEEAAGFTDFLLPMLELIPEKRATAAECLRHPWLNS
Sequence of Sphingosine 1-phosphate receptor 4 (O95977 whole entry): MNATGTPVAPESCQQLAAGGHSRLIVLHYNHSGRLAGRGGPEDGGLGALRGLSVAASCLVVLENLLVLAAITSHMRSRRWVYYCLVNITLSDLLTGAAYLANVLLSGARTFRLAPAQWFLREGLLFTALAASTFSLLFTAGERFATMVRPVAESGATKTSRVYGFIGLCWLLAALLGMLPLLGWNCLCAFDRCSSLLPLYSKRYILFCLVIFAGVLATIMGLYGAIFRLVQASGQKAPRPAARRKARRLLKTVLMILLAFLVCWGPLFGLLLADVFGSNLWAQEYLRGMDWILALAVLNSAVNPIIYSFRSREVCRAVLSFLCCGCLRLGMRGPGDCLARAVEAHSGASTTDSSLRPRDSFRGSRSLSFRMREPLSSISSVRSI
Sequence of MAP kinase-activated protein kinase 3 (Q16644 whole entry): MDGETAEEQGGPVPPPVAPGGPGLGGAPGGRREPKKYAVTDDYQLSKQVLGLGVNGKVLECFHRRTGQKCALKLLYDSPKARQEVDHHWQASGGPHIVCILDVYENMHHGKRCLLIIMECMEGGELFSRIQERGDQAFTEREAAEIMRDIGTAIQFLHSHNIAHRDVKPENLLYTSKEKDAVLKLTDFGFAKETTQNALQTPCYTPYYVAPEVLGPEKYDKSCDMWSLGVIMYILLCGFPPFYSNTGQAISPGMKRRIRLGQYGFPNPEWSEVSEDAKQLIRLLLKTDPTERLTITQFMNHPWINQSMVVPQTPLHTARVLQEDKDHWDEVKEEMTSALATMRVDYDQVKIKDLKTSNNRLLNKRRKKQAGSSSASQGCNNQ

In general, IC50 refers to the concentration at which inhibition is half-maximal. As for `CN(C)S(=O)(=O)Oc1cccc(C(=O)Nc2ccc(Cl)c(Cl)c2)c1`, the IC50 was 19.6 µM (active) in test [1] and 5.38 µM (active) in test [2].
For the molecule `Cc1ccc2[nH]c(/C(C#N)=C/c3ccc(O)c(O)c3)nc2c1`, the results for the IC50 in test [1] and in [2] were 24.3 µM (active) and 9.9 µM (active), respectively.
Broadly, the AC50 is the midpoint of the concentration-response curve, whichever way the signal moves. For the molecule `COC(=O)C1CN(C#N)N(c2ccc(Cl)cc2)C12c1ccccc1-c1ccccc12` (configuration not stated), the AC50 in test [3] is 3 µM (active); in [4], 2.75 µM (active); in test [6], 8.85 µM (active). Also, the IC50 in [5] was 0.313 µM (active).
As usually defined, the EC50 is the concentration needed to bring the measured effect to its halfway point. Turning to `O=C(NN1C(=O)CSC1=S)C(=O)NN1C(=O)CSC1=S`, in test [7], the half-maximal effective concentration (EC50) is 12.4 µM (active). In addition, on Caspase-6, the AC50 was 0.276 µM (active).
One may read the Ki as the dissociation constant of the complex between target and ligand, obtained from inhibition or displacement. For `Nc1noc2cccc(-c3cccc(O)c3)c12`, the Ki was 7.94 µM (active) on SRSF protein kinase 1; > 7.94 µM (inactive) in test [8]; > 25.1 µM (inactive) in test [9]; > 10 µM (inactive) in test [10]; 1.26 µM (active) in test [11]; > 1.58 µM (inactive) in test [12]. The Ki in test [13] is > 10 µM (inactive); in test [14], > 7.94 µM (inactive); in [15], 6.31 µM (active); in [16] it was 20 µM (active); in test [17], 50.1 µM (active); in [18], 3.16 µM (active). For the same molecule, the results for the Ki in test [19], in test [20] and in test [21] were > 10 µM (inactive), 3.16 µM (active) and 0.794 µM (active), respectively.
The CC50 is the concentration giving 50% cytotoxicity. As to `O=C1NC(=S)S/C1=C\C=C\c1ccc([N+](=O)[O-])o1`, the AC50 in test [4] was 1.73 µM (active). The CC50 in test [22] was 4.04 µM (active).
